In publication PMC10893631, “Receptor-based pharmacophore modeling, molecular docking, synthesis and biological evaluation of novel VEGFR-2, FGFR-1, and BRAF multi-kinase inhibitors” (BMC Chemistry, 2024):

Experiments:
Assay in all cases: NCI SRB growth inhibition (single dose 10 µM / five-dose)
Type in all cases: cell-based, human
KM12 = conditions: Homo sapiens; KM12 (Colon cancer), 10 µM; read-out: GI%
How it was run: (§1)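 Seeding varied with cell doubling time (5000–40,000 cells/well). Dilutions were 10-fold or ½ log, five levels in total. Sulforhodamine B staining (0.4% w/v, 10 min, room temperature) of TCA-fixed cells measured growth.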

IGROV1 = conditions: Homo sapiens, IGROV-1; IGROV1 (Ovarian cancer), 10 µM; read-out: GI%
How it was run: as §1

MDA-MB-231/ATCC = conditions: Homo sapiens; MDA-MB-231/ATCC (Breast cancer), 10 µM; read-out: GI%
How it was run: as §1

HCT-116 = conditions: Homo sapiens, HCT-116; read-out: GI%
How it was run: as §1

CCRF-CEM = conditions: Homo sapiens; CCRF-CEM (Leukemia), 10 µM; read-out: GI%
How it was run: as §1

SK-OV-3 = conditions: Homo sapiens; SK-OV-3 (Ovarian cancer), 10 µM; read-out: GI%
How it was run: as §1

OVCAR-4 = conditions: Homo sapiens; OVCAR-4 (Ovarian cancer), 10 µM; read-out: GI%
How it was run: as §1

UACC-257 = conditions: Homo sapiens; UACC-257 (Melanoma), 10 µM; read-out: GI%
How it was run: as §1

MALME-3 M = conditions: Homo sapiens; MALME-3 M (Melanoma), 10 µM; read-out: GI%
How it was run: as §1

MDA-MB-435 = conditions: Homo sapiens; MDA-MB-435 (Melanoma), 10 µM; read-out: GI%
How it was run: as §1

BT-549 = conditions: Homo sapiens; BT-549 (Breast cancer), 10 µM; read-out: GI%
How it was run: as §1

HS 578 T = conditions: Homo sapiens; HS 578 T (Breast cancer), 10 µM; read-out: GI%
How it was run: as §1

K-562 = conditions: Homo sapiens, K562; K-562 (Leukemia), 10 µM; read-out: GI%
How it was run: as §1

SK-MEL-2 = conditions: Homo sapiens; SK-MEL-2 (Melanoma), 10 µM; read-out: GI%
How it was run: as §1

HCT-15 = conditions: Homo sapiens; HCT-15 (Colon cancer), 10 µM; read-out: GI%
How it was run: as §1

786–0 = conditions: Homo sapiens; 786–0 (Renal cancer), 10 µM; read-out: GI%
How it was run: as §1

CAKI-1 = conditions: Homo sapiens; CAKI-1 (Renal cancer), 10 µM; read-out: GI%
How it was run: as §1

OVCAR-8 = conditions: Homo sapiens; OVCAR-8 (Ovarian cancer), 10 µM; read-out: GI%
How it was run: as §1

A498 = conditions: Homo sapiens; A498 (Renal cancer), 10 µM; read-out: GI%
How it was run: as §1

NCI/ADR-RES = conditions: Homo sapiens; NCI/ADR-RES (Ovarian cancer), 10 µM; read-out: GI%
How it was run: as §1

A549/ATCC = conditions: Homo sapiens; A549/ATCC (Non-small cell lung cancer), 10 µM; read-out: GI%
How it was run: as §1

ACHN = conditions: Homo sapiens; ACHN (Renal cancer), 10 µM; read-out: GI%
How it was run: as §1

COLO 205 = conditions: Homo sapiens; COLO 205 (Colon cancer), 10 µM; read-out: GI%
How it was run: as §1

RXF 393 = conditions: Homo sapiens; RXF 393 (Renal cancer), 10 µM; read-out: GI%
How it was run: as §1

SK-MEL-28 = conditions: Homo sapiens; SK-MEL-28 (Melanoma), 10 µM; read-out: GI%
How it was run: as §1

SNB-75 = conditions: Homo sapiens; SNB-75 (CNS cancer), 10 µM; read-out: GI%
How it was run: as §1

SMILES: COc1ccc(-c2nc3cc(C(=O)NN=Cc4ccc(OC)c(O)c4)ccc3[nH]2)cc1 [8l, N'-(3-Hydroxy-4-methoxybenzylidene)-2-(4-methoxyphenyl)-1H-benzo[d]imidazole-5-carbohydrazide]
- inhibition at 10 µM (KM12): 34.5%
- inhibition at 10 µM (IGROV1): 20.3%
- inhibition at 10 µM (MDA-MB-231/ATCC): 26.4%
- inhibition at 10 µM (HCT-116): 43.8%
- inhibition at 10 µM (CCRF-CEM): 89.4%
- inhibition at 10 µM (SK-OV-3): < 5%
- inhibition at 10 µM (OVCAR-4): 9.88%
- inhibition at 10 µM (UACC-257): 52.9%
- inhibition at 10 µM (MALME-3 M): 87.6%
- inhibition at 10 µM (MDA-MB-435): 26.5%
- inhibition at 10 µM (BT-549): 10.4%
- inhibition at 10 µM (HS 578 T): 46.2%
- inhibition at 10 µM (K-562): 48.5%
- inhibition at 10 µM (SK-MEL-2): 25.8%
- inhibition at 10 µM (HCT-15): < 5%
- inhibition at 10 µM (786–0): 18.1%
- inhibition at 10 µM (CAKI-1): < 5%
- inhibition at 10 µM (OVCAR-8): 28.1%
- inhibition at 10 µM (A498): < 5%
- inhibition at 10 µM (NCI/ADR-RES): < 5%
- inhibition at 10 µM (A549/ATCC): 5.94%
- inhibition at 10 µM (ACHN): < 5%
- inhibition at 10 µM (COLO 205): 76.8%
- inhibition at 10 µM (RXF 393): 37.2%
- inhibition at 10 µM (SK-MEL-28): 52.5%
- inhibition at 10 µM (SNB-75): 25.8%

SMILES: COc1cccc(C=NNC(=O)c2ccc3[nH]c(-c4ccccc4)nc3c2)c1 [8c, N'-(3-Methoxybenzylidene)-2-phenyl-1H-benzo[d]imidazole-5-carbohydrazide]
- inhibition at 10 µM (KM12): 26%
- inhibition at 10 µM (IGROV1): 10.1%
- inhibition at 10 µM (MDA-MB-231/ATCC): < 5%
- inhibition at 10 µM (HCT-116): 12.7%
- inhibition at 10 µM (CCRF-CEM): 44.5%
- inhibition at 10 µM (SK-OV-3): 64%
- inhibition at 10 µM (OVCAR-4): 20.1%
- inhibition at 10 µM (UACC-257): 14.6%
- inhibition at 10 µM (MALME-3 M): 47.1%
- inhibition at 10 µM (MDA-MB-435): 18.9%
- inhibition at 10 µM (BT-549): < 5%
- inhibition at 10 µM (HS 578 T): 20%
- inhibition at 10 µM (K-562): 41.7%
- inhibition at 10 µM (SK-MEL-2): 19.5%
- inhibition at 10 µM (HCT-15): 27.5%
- inhibition at 10 µM (786–0): 21.3%
- inhibition at 10 µM (CAKI-1): 10%
- inhibition at 10 µM (OVCAR-8): 24.5%
- inhibition at 10 µM (A498): < 5%
- inhibition at 10 µM (NCI/ADR-RES): 6.59%
- inhibition at 10 µM (A549/ATCC): 20.1%
- inhibition at 10 µM (ACHN): < 5%
- inhibition at 10 µM (COLO 205): 32.6%
- inhibition at 10 µM (RXF 393): 29.2%
- inhibition at 10 µM (SK-MEL-28): 20.4%
- inhibition at 10 µM (SNB-75): 11%

SMILES: O=C(NN=Cc1cccc(O)c1)c1ccc2[nH]c(-c3ccc(Cl)cc3)nc2c1 [8p, 2-(4-Chlorophenyl)-N'-(3-hydroxybenzylidene)-1H-benzo[d]imidazole-5-carbohydrazide]
- inhibition at 10 µM (KM12): 62.7%
- inhibition at 10 µM (IGROV1): 5.71%
- inhibition at 10 µM (MDA-MB-231/ATCC): 45.2%
- inhibition at 10 µM (HCT-116): 37.7%
- inhibition at 10 µM (CCRF-CEM): 71.9%
- inhibition at 10 µM (SK-OV-3): 36.2%
- inhibition at 10 µM (OVCAR-4): 15.7%
- inhibition at 10 µM (UACC-257): < 5%
- inhibition at 10 µM (MALME-3 M): 58.9%
- inhibition at 10 µM (MDA-MB-435): 15.2%
- inhibition at 10 µM (BT-549): < 5%
- inhibition at 10 µM (HS 578 T): 27.1%
- inhibition at 10 µM (K-562): 49.9%
- inhibition at 10 µM (SK-MEL-2): 24%
- inhibition at 10 µM (HCT-15): < 5%
- inhibition at 10 µM (786–0): 22.2%
- inhibition at 10 µM (CAKI-1): < 5%
- inhibition at 10 µM (OVCAR-8): 19%
- inhibition at 10 µM (A498): 10.2%
- inhibition at 10 µM (NCI/ADR-RES): < 5%
- inhibition at 10 µM (A549/ATCC): 7.53%
- inhibition at 10 µM (ACHN): < 5%
- inhibition at 10 µM (COLO 205): 34.6%
- inhibition at 10 µM (RXF 393): 31.6%
- inhibition at 10 µM (SK-MEL-28): 16%
- inhibition at 10 µM (SNB-75): 7.89%
